Common to all, as to test: MIC / synergy (FIC index) microplate growth test, optical density 620 nm
Assay type in all cases: cell-based

For test [1], the system named is Aspergillus niger ATCC 6275. Particulars: Example 5. An excerpt: FIC Index=(MIC of A with B/MIC of A)+(MIC of B with A/MIC of B) with: • MIC of A with B: minimum concentration of product A in the combination A+B which makes it possible to obtain an inhibitory effect; • MIC of B with A: minimum concentration of product B in the combination A+B which makes it possible to obtain an inhibitory effect; • MIC of A: minimum inhibitory concentration of product A alone; • MIC of B: minimum inhibitory concentration of product B alone. […] A 96-well microplate at an incubation temperature of 32.5° C. is used. The incubation time of the microplate for the abovementioned two strains is: • from 18 to 24 h aerobically for Candida albicans and Staphylococcus aureus. • from 24 hours to 48 hours aerobically for Aspergillus niger Tests […] Successive dilutions were made with the 1‰ agar solution. 50 μl of each of the daughter solutions obtained containing compound A or B are added to the microplate wells. 100 μl of Sabouraud liquid nutrient broth inoculated at double concentration with the Candida albicans strain and 50 μl of aqueous 1‰ agar solution are also added thereto. 50 μl of each of the daughter solutions obtained containing compound A and 50 μl of each of the daughter solutions obtained containing compound B are added to the microplate wells. 100 μl of Sabouraud liquid nutrient broth inoculated at double concentration with the Candida albicans strain are also added thereto. A positive microbial growth control was also prepared. […] An absorbance control was performed in parallel on compounds A and B alone. This control corresponds to 100 μl of double concentration sterile Sabouraud liquid nutrient broth+100 μl of double concentration compound A or B. […] In the two cases (test and control), the inoculum represents the concentration of the Candida albicans strain present in the final volume of the wells (200 μl) and is between 2 and 6×10^5 cfu/ml of Candida albicans. […] The test as described above (tests, absorbance control and growth control) was performed again to test the combination A+B on the Staphylococcus aureus strain and on the Aspergillus niger strain as appropriate.

Test [2] concerns Candida albicans ATCC 10231. As for the experimental part: The microbial strain Candida albicans ATCC 10231 and a double-concentration Sabouraud broth liquid culture medium were used.
(§1) A 96-well microplate at an incubation temperature of 32.5° C. is used.
(§2) The incubation time of the microplate for the abovementioned two strains is: • from 18 to 24 h aerobically for Candida albicans and Staphylococcus aureus. • from 24 hours to 48 hours aerobically for Aspergillus niger Tests
(§3) A 10% (weight/volume) stock solution was prepared by mixing 1 g of compound in 9 ml of aqueous 1‰ agar solution. Successive dilutions were made with the 1‰ agar solution.
(§4) 50 μl of each of the daughter solutions obtained containing compound A or B are added to the microplate wells. 100 μl of Sabouraud liquid nutrient broth inoculated at double concentration with the Candida albicans strain and 50 μl of aqueous 1‰ agar solution are also added thereto.
(§5) 50 μl of each of the daughter solutions obtained containing compound A and 50 μl of each of the daughter solutions obtained containing compound B are added to the microplate wells. 100 μl of Sabouraud liquid nutrient broth inoculated at double concentration with the Candida albicans strain are also added thereto.
(§6) A positive microbial growth control was also prepared. The positive microbial growth control corresponds to the mixture of 100 μl of aqueous 1‰ agar solution with 100 μl of Sabouraud liquid nutrient broth inoculated at double concentration with the Candida albicans strain in the absence of compounds A and B.
(§7) An absorbance control was performed in parallel on compounds A and B alone. This control corresponds to 100 μl of double concentration sterile Sabouraud liquid nutrient broth+100 μl of double concentration compound A or B.
(§8) In the three cases (absorbance control, growth control and test), the final volume present in each of the microplate wells is 200 μl.
(§9) In the two cases (test and control), the inoculum represents the concentration of the Candida albicans strain present in the final volume of the wells (200 μl) and is between 2 and 6×10^5 cfu/ml of Candida albicans.
(§10) The minimum inhibitory concentration (MIC) of each compound A and B alone and in combination was determined in a known manner by means of optical density measurements at a wavelength of 620 nm.

The test system of test [3] is Staphylococcus aureus ATCC 6538. Particulars: Example 1. As for the experimental part: The microbial strain Staphylococcus aureus ATCC 6538 and a double-concentration nutrient broth liquid culture medium were used.
as §1, §2, §3, §4, §5, §6, §7, §8, §9, §10
The test as described above (tests, absorbance control and growth control) was performed again to test the combination A+B on the Staphylococcus aureus strain and on the Aspergillus niger strain as appropriate.

This note sets out measurements from US12521329B2, “Antimicrobial mixture containing 4-(3-ethoxy-4-hydroxyphenyl) butan-2-one, and cosmetic composition containing same” (L'OREAL, priority 2017, dated 2026).

Consider `CCOc1cc(CCC(C)=O)ccc1O` [A, 4-(3-ethoxy-4-hydroxyphenyl)butan-2-one], for which the “% MIC of A alone” value in test [1] is recorded as 0.25%; in test [2] (Example 1, growth <= 20%, or even < 25%), 0.2%; in test [2] (Example 3), 0.2%; in test [2] (Example 4), 0.2%; in test [2] (Example 5) it was 0.1%; in test [3] (growth <= 20%, or even < 25%), 0.5%. Besides, the microbial growth percentage was determined as 85% in test [1] (0.0625 weight % A alone); 43% in test [1] (0.125 weight % A alone); 4% in test [1] (0.25 weight % A alone); 84% in test [2] (Example 1, 0.025 weight % A alone); 71% in test [2] (Example 1, 0.05 weight % A alone); 48% in test [2] (Example 1, 0.1 weight % A alone). In addition, the microbial growth percentage in test [2] (Example 1, 0.2 weight % A alone) is 10%; in test [2] (Example 2, 0.025 weight % A alone) it was 52%; in test [2] (Example 2, 0.05 weight % A alone) it was 31%; in test [2] (Example 2, 0.1 weight % A alone) it was 18%; in test [2] (Example 3, 0.025 weight % A alone), 71%; in test [2] (Example 3, 0.05 weight % A alone) it was 65%. In addition, the microbial growth percentage in test [2] (Example 3, 0.1 weight % A alone) came out at 44%; in test [2] (Example 3, 0.2 weight % A alone) it was 4%; in test [2] (Example 4, 0.025 weight % A alone), 83%; in test [2] (Example 4, 0.05 weight % A alone) it was 71%; in test [2] (Example 4, 0.1 weight % A alone) it was 46%; in test [2] (Example 4, 0.2 weight % A alone) it was 6%. Further, the microbial growth percentage in test [2] (Example 5, 0.025 weight % A alone) is on record as 56%; in test [2] (Example 5, 0.05 weight % A alone) it was 39%; in test [2] (Example 5, 0.1 weight % A alone) it was 17%; in test [3] (0.0625 weight % A alone) it was 87%; in test [3] (0.125 weight % A alone), 77%; in test [3] (0.25 weight % A alone) it was 78%. Further, the microbial growth percentage in test [3] (0.5 weight % A alone) was determined as 4%. For the same compound, the “% MIC A” value in test [2] (Example 2, A alone) is reported as 0.1%.
Consider `Cc1cc(CC(C)CC(C)(C)C)n(O)c(=O)c1.NCCO` (centres unmarked) [B2, piroctone olamine, reference compound], for which the microbial growth percentage in test [2] (Example 2, 0.00125 weight % B2 alone) turned out to be 35%; in test [2] (Example 2, 0.0025 weight % B2 alone) it was 0%.
Consider `O=C1C(N(CO)C(=O)NCO)N(CO)C(=O)N1CO` (centres unmarked) [B3, 1-[1,3-bis(hydroxymethyl)-2,5-dioxoimidazolidin-4-yl]-1,3-bis(hydroxymethyl)urea], for which, in test [2] (Example 3), the “% MIC of B3 alone” value is listed as 0.125%. The microbial growth percentage came out at 55% in test [2] (Example 3, 0.0625 weight % B3 alone) and 10% in test [2] (Example 3, 0.125 weight % B3 alone).
On to `N=C(N)c1ccc(OCCCCCCOc2ccc(C(=N)N)cc2)cc1` [B4, hexamidine diisethionate, reference compound], for which the “% MIC of B4 alone” value in test [2] (Example 4) is on record as 0.005%. For the same compound, the microbial growth percentage in test [2] (Example 4, 0.00125 weight % B4 alone) is 78%; in test [2] (Example 4, 0.0025 weight % B4 alone) it was 59%; in test [2] (Example 4, 0.005 weight % B4 alone) it was 3%.
